# Measured values reported in patent publication US20070213411A1, “Dispersions And Methods Of Preparing Them” (The Australian National University, priority 2003, published 2007).
# What was measured:
# [1] = Theoretical water droplet contact angle on the oil surface (Young's wetting equation); format: physicochemical; details: calculated by Young's wetting equation
# Experimental: This can be attributed to the fact that the more soluble oils undergo Ostwald ripening, allowing rapid oil droplet growth. The more hydrophobic an oil the better it is for use in methods described herein as Ostwald ripening cannot occur. A degree of hydrophobicity can be estimated by applying the Young's wetting equation to a theoretical liquid/liquid drop profile. A theoretical water droplet contact angle on the oil surface can be calculated, and if this angle is higher than about 80°, preferably higher than 90° then the oil is sufficiently hydrophobic. For example, for dodecane, the theoretical droplet contact angle is 110°. However, it should be noted that selection of a suitable carrier liquid or oil according to theoretical contact angles is a guide only and that liquids or oils having a theoretical contact angle of about 80° are not necessarily less preferred than those having a higher theoretical contact angle.
# [2] = Droplet size distribution of oil-in-water dispersions by dynamic light scattering (Malvern Zetasizer); format: physicochemical; details: 0.2 ml/25 ml water
# Experimental: (§1) The enhancement of oil droplet dispersion in water is most easily monitored using turbidity measurements. This enhancement can be measured by the difference between the new system (degassed) and the gassed blank, following vigorous shaking. […] Turbidity is a measure of how many droplets are dispersed in a given phase and is measured in NTU (nephelometric turbidity units) and in the results presented here is measured by light scattering. To give an understanding of the magnitude of these turbidity values, distilled water has a turbidity of 0.02 NTU, while tap water has a value of 1-2 NTU. Although useful, NTU measurements are of limited value and the results can be inaccurate if the refractive index of the dispersed phase is close to that of the dispersing phase (such as with perfluorocarbons in water) and so in some cases dynamic light scattering (DLS) has been used to obtain the droplet size distribution, as well as the charge on the oil droplets. However, careful interpretation of the DLS results is required for poly-disperse samples. Mono-disperse samples show size distribution by volume graphs (see later) over similar size ranges to the Z-average (diameter) and have a small PDI value (poly-dispersity index). The magnitude of the PDI is a measure of poly-dispersity. For poly-disperse samples the Z-average is the best estimate of average droplet size.
# (§2) Mixtures of oil and water were de-gassed by a process of repeated freezing in liquid nitrogen, followed by pumping down to a pressure of 0.01 mbar and then melting in a sealed tube. The dissolved gas produced on each melting cycle was removed on re-freezing. Although this process was carried out five times, typically no further de-gassing on melting was observed after 3-4 cycles. […] (It should be noted that membrane separators and vacuum towers are used to de-gas liquids commercially.)
# (§3) Dispersion of oil in water was achieved by vigorous shaking of the mixture for 8 sec in a sealed Pyrex tube. Turbidity was measured using an HF Scientific Micro 100 Turbidimeter. Particle sizes and zeta potentials were measured using a Malvern Zetasizer.
# [3] = Zeta potential of oil droplets (Malvern Zetasizer); format: physicochemical; details: de-gassed mixture in water
# Experimental: as §2, §3
# [4] = Dispersion in water and its stability after vigorous shaking, de-gassed versus gassed (turbidity, visual); format: physicochemical; details: for time the dispersion is maintained / stable: de-gassed mixture in water after vigorous shaking, no added dispersants; for quality of dispersion in water (turbidity / visual): de-gassed; for quality of dispersion in water (turbidity / visual) / quality of dispersion in water (visual): after vigorous shaking; for quality of dispersion in water (visual): gassed
# Experimental: as §1, §2, §3
# [5] = cited from earlier work; for Surface tension: against air; for Interfacial tension: against water
Theoretical contact angle (water droplet on oil surface) [1],time the dispersion is maintained / stable [4],Compound,quality of dispersion in water (turbidity / visual) [4],Surface tension [5] [mN/m],Interfacial tension [5] [mN/m],also measured
113°,many hours,"FC(F)(F)C(F)(F)C(F)(F)C(F)(F)C(F)(F)C(F)(F)C(F)(F)C(F)(F)Br [Perflubron, perfluorooctyl bromide]",enhanced dispersion due to de-gassing is observed,18,47,"average droplet diameter ([2]; de-gassed, 1 hour after vigorous shaking): about 0.6 microns; PDI (poly-dispersity index) ([2]; de-gassed, at one hour): 0.430; Z-average size ([2]; de-gassed, at one hour): 599.6 nm; droplet size of size graph (Diam) ([2]; de-gassed, at one hour): 437.6 nm; PDI (poly-dispersity index) ([2]; gassed, after 1 hour): 0.674; Z-average size ([2]; gassed, at one hour): 1176 nm; zeta potential of droplets [3]: −42 mV"
111° ^,many hours,"FC(F)(F)C(F)(F)C(F)(F)C(F)(F)C(F)(F)C(F)(F)F [C6F14, perfluorohexane]",readily dispersed,11.91,38,"time to phase separation after vigorous shaking ([4]; gassed mixture, 0.2 ml/25 ml water): less than a minute"
110 °,,"CCCCCCCCCCCC [dodecane, reference compound]",,,,

# The remaining lines, values behind:
Compound,Theoretical contact angle (water droplet on oil surface) [1],time the dispersion is maintained / stable [4],quality of dispersion in water (turbidity / visual) [4],Surface tension [5] [mN/m],Interfacial tension [5] [mN/m],also measured
"FC(F)(F)C(F)(F)C(F)(F)C(F)(F)C(F)(F)C(F)(F)C(F)(F)F [C7F16, perfluoroheptane]",112°^,,,12.85,39.7,
"CC(C)c1cccc(C(C)C)c1O [Propofol, 2,6-diisopropyl phenol]",,many hours,complete dispersion of the oil,,,"effect of added salt on the dispersion ([4]; de-gassed dispersion exposed to high salt levels, above those found in human blood): unaffected by the addition of salt; quality of dispersion in water (visual) [4]: many large, visible droplets of the oil"
"FC(F)(F)C(F)(F)C(F)(F)C(F)(F)C(F)(F)C(F)(F)C(F)(F)C(F)(F)F [C8F18, perfluorooctane]",113° ^,,,14.00,42,
COC1=CC(=O)C[C@@H](C)[C@]12Oc1c(Cl)c(OC)cc(OC)c1C2=O [griseofulvin],,,clearly well dispersed,,,"turbidity after dispersion by vigorous shaking ([4]; 0.05 g dissolved in 10 ml soybean oil, 0.2 ml of this dispersed in 25 ml water): the same as those obtained for soybean oil alone; quality of dispersion in water (visual) [4]: solid clumps and a more transparent solution"
